The text below walks through data of publication PMC11396062, “The n-Butanol Extract Obtained from the Inner Bark of Tabebuia rosea (Bertol.) DC, Specioside, and Catalposide Induce Leukemia Cell Apoptosis in the Presence of Apicidin” (Molecules, 2024).

By IC50 is commonly meant the point on the concentration scale where inhibition reaches its midpoint. Read a high IC50 as weaker potency in that assay.

The structures appear in SMILES notation. In brackets after ≈: the same amount, converted by molar mass.

Experiment [1] relates to Peripheral blood mononuclear cells (PBMCs). Description: MTT cell viability assay, PBMC (normal cells). Particulars: Homo sapiens, n = 3. It counts as cell-based. As to the method:
Jurkat and THP-1 cell lines were purchased from the American Type Culture Collection (ATCC, Rockville, MD, USA); Jurkat is a human lymphocytic cell line representing acute T-cell leukemia, and THP-1 is a monocytic cell line that represents acute myelogenous leukemia (AML). Jurkat and THP-1 cells were maintained in RPMI 1640 medium (Sigma) supplemented with 10% heat-inactivated fetal bovine serum (FBS) (Gibco Cat No. 16140071, Waltham, MA USA), 200 μg/mL penicillin, 200 μg/mL streptomycin, 400 μg/mL neomycin (GIBCO, Cat No. 15640-055), 5 μg/mL amphotericin, and 1 mM sodium pyruvate (all from Sigma Chemical Co., Saint Louis, MO, USA; Cat Nos. A9528-50 MG, M7522-100ML, and S8636-100ML, respectively). The cells were maintained at 37 °C in a humidified atmosphere with 5% CO2. The culture medium was exchanged with fresh medium every 2–3 days. Peripheral blood mononuclear cells (PBMCs) were isolated from normal human venous blood. Further, 10 milliliters of human blood was mixed with 10 mL of RPMI-1640 containing 50 µL of heparin and gradually poured over 1 mL of HISTOPAQUE®-1119 (Sigma). The plasma was removed by centrifugation at 3000 rpm for 30 min. The peripheral blood mononuclear cell-containing layer was collected with a pipette and diluted in 4 mL of PBS. PBMCs were harvested by centrifugation at 1500 rpm for 10 min at room temperature, resuspended in RPMI-1640 with 10% FBS, and incubated at 37 °C in 5% CO2 humidified air.
Cell viability was determined by measuring the mitochondrial activity of live cells via the metabolism of the tetrazolium substrate 3-(4,5-dimethylthiazol-2-yl)-2,5-diphenyl tetrazolium bromide (MTT) and converting it to purple formazan crystals. Briefly, the cells (2 × 10^4 cells/well) were treated with 25, 50, 100, 200, or 400 μg/mL extract diluted in DMSO (at a final concentration of 0.5%) and incubated for 12, 24, or 48 h. Catalposide and specioside were tested at concentrations of 20, 50, and 100 μg/mL for 12, 24, and 48 h. For apicidin, 0.5, 1, and 2 μM apicidin were tested for 24 and 48 h. Doxorubicin was used as a reference standard drug (positive control). After treatment, the medium was discarded; 200 μL of RPMI 1640 medium without phenol red containing 0.5 mg/mL MTT (Sigma Chemical Co., Saint Louis, MO, USA; Cat. No. M2128-500MG) was then added to each well. The plates were incubated for four hours at 37 °C with 5% CO2 in a humidified atmosphere. The medium was discarded, and 100 μL of DMSO was added to solubilize the formazan crystals. The absorbance was measured with an ELISA microplate reader at 492 nm (ELx800; BioTek Instruments Inc., Winooski, VT, USA). The percentage of viable cells was calculated on the basis of the nontreated control (taken as 100%). The IC50 (concentration causing a 50% reduction in cellular viability) values for all the tested compounds were evaluated in Excel using the nonlinear regression curve method. Three independent assays were performed, each in triplicate.

A further experiment concerns p38 MAPK. Description: Western blot p38 phosphorylation. It counts as cell-based, human. Particulars: THP-1, APC pretreatment, p < 0.001. Here is the method:
THP-1 cells were seeded in 24-well plates (5 × 10^5 cells/well), and after 24 h of incubation, they were pretreated with 1 µM apicidin for 24 h and then treated with different concentrations of the n-butanol extract, catalposide, and specioside for 24 h. After treatment, the cells were lysed with an Abcam protein extraction kit (ab270054), and a phosphatase inhibitor cocktail (ab201115) was added. The supernatants of the cell extracts were quantified with a BCA protein assay (Thermo Scientific Pierce #23227, Waltham, MA, USA). Equivalent amounts of protein were electrophoresed on 10% SDS polyacrylamide gels and then electroblotted onto 0.45 μm polyvinylidene difluoride (PVDF) membranes (GE Healthcare, Chicago, IL, USA). […] The signals were detected using SuperSignal™ West Pico PLUS Chemiluminescent Substrate (Thermo Scientific Pierce cat 34577) and analyzed with a ChemiDoc XRS+ system (Bio-Rad, Hercules, CA, USA). The density of each band was measured using ImageJ software V. 1.53n, 7 November 2021 (NIH, Bethesda, MD, USA), and the protein levels were normalized to the GAPDH levels. The data are expressed as the means of three independent experiments. […]

In a further experiment the test system is THP-1 cells. Description: Flow cytometric apoptosis, Annexin V-CF647/7-AAD. It counts as cell-based, human. The following applies: THP-1, 24 h (Figure S5). As to the method: In 96-well plates, 8 × 10^4 cells were treated with 25, 50, and 100 µg/mL extract and 400 µM doxorubicin (positive control) for 24 and 48 h. The cells were washed with 1X PBS, and apoptotic cells were detected by staining with 100 µL of Annexin V-CF647 and 5 µL of the 7-AAD Apoptosis Annexin Red Kit (FCCH100108 FlowCellect, Millipore, Darmstadt, Germany). The cells were incubated at room temperature for 15 min in the dark and analyzed on a Guava Millipore flow cytometer (Merck Millipore, Bedford, MA, USA) using InCyte software (version 3.1, Merck Millipore). The percentage of annexin V-positive cells was evaluated.
For orientation: A flow cytometer gives signals particle by particle.

Regarding `O=C(O[C@H]1[C@@H]2C=CO[C@@H](O[C@@H]3O[C@H](CO)[C@@H](O)[C@H](O)[C@H]3O)[C@@H]2[C@@]2(CO)O[C@@H]12)c1ccc(O)cc1` [Catalposide, catalposide], the IC50 came out at 126 ± 2.8 µg/mL (≈ 260 µM) in experiment [1] (12 h), 87.7 ± 3.1 µg/mL (≈ 182 µM) in experiment [1] (24 h) and 43.4 ± 3.4 µg/mL (≈ 90 µM) in experiment [1] (48 h). Also, the “phosphorylation of p38 in cells pretreated with APC compared with control” value in the experiment on p38 MAPK is reported as “significantly increased”. The “apoptosis compared with control” value in the experiment on THP-1 cells is on record as “increased apoptosis”.

Regarding `O=C(/C=C/c1ccc(O)cc1)O[C@H]1[C@@H]2C=CO[C@@H](O[C@@H]3O[C@H](CO)[C@@H](O)[C@H](O)[C@H]3O)[C@@H]2[C@@]2(CO)O[C@@H]12` [Specioside], the IC50 in experiment [1] (12 h) was determined as 165 ± 3.1 µg/mL (≈ 325 µM); in experiment [1] (24 h) it was 70.7 ± 3.7 µg/mL (≈ 139 µM); in experiment [1] (48 h), 54.2 ± 3.7 µg/mL (≈ 107 µM). Moreover, the “phosphorylation of p38 in cells pretreated with APC compared with control” value in the experiment on p38 MAPK is recorded as “significantly increased”. In addition, in the experiment with THP-1 cells, the “apoptosis compared with control” value was “increased apoptosis”.
